# US6737383B1, “Herbicidal oxadiazolidines” (priority 1999, dated 2004)
# Experiments:
# cocklebur = test: Test B pre/postemergence cocklebur; format: in vivo, Xanthium strumarium
# In short: (§1)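 Response is a visual 0-to-10 score relative to untreated plants, where 0 means no effect and 10 means complete control, taken twelve to sixteen days after application. Treatments went onto soil at planting and onto foliage of 1- to 4-leaf plants, using a surfactant-containing non-phytotoxic solvent.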
# velvetleaf = test: Test B pre/postemergence velvetleaf; format: in vivo, Abutilon theophrasti
# In short: as §1
# bamyardgrass = test: Test B flood test barnyardgrass; format: in vivo, Echinochloa crus-galli
# In short: (§2)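 Flood test on plants grown to the 2-leaf stage; treated plants kept in greenhouse twelve to sixteen days, then visually rated against controls on a 0 (no effect) to 10 (complete control) scale.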
# rape = test: Test B pre/postemergence rape; format: in vivo, Brassica napus
# In short: as §1
# bedstraw = test: Test B pre/postemergence bedstraw; format: in vivo, Galium aparine
# In short: as §1
# wheat = test: Test B pre/postemergence wheat; format: in vivo, Triticum aestivum
# In short: as §1
# purple nutsedge = test: Test B pre/postemergence purple nutsedge; format: in vivo, Cyperus rotundus; conditions: Preemergence
# In short: as §1
# blackgrass = test: Test B pre/postemergence blackgrass; format: in vivo, Alopecurus myosuroides
# In short: as §1
# soybean = test: Test B pre/postemergence soybean; format: in vivo, Glycine max
# In short: as §1
# surinam grass = test: Test B pre/postemergence surinam grass; format: in vivo, Brachiaria decumbens
# In short: as §1
# crabgrass = test: Test B pre/postemergence crabgrass; format: in vivo, Digitaria sanguinalis
# In short: as §1
# sugar beet = test: Test B pre/postemergence sugar beet; format: in vivo, Beta vulgaris
# In short: as §1
# wild oat = test: Test B pre/postemergence wild oat; format: in vivo, Avena fatua
# In short: as §1
# smallflower flatsedge = test: Test B flood test smallflower flatsedge; format: in vivo, Cyperus difformis
# In short: as §2
# corn = test: Test B pre/postemergence corn; format: in vivo, Zea mays
# In short: as §1
# pigweed = test: Test B pre/postemergence pigweed; format: in vivo, Amaranthus retroflexus
# In short: as §1
# [1] = Postemergence, Rate 250 g/ha, scale 0 to 10, 0 no effect, 10 complete control
# [2] = Postemergence, Rate 1000 g/ha, scale 0 to 10 (0 no effect, 10 complete control)
# [3] = Preemergence, Rate 125 g/ha, scale 0 to 10 (0 no effect, 10 complete control)
# [4] = Preemergence, Rate 250 g/ha, scale of 0 to 10 where 0 is no effect and 10 is complete control
# [5] = Preemergence, Rate 500 g/ha, scale 0 (no effect) to 10 (complete control)
# [6] = Rate 125 g/ha, Postemergence, scale 0 to 10, 0 no effect, 10 complete control
# [7] = Rate 500 g/ha, Postemergence, 0 to 10 scale (0 no effect, 10 complete control)
# [8] = Rate 1000 g/ha, Preemergence, scale 0 to 10 (0 no effect, 10 complete control)
# [9] = Rate 125 g/ha, Postemergence section (flood test species), scale 0 to 10, 0 no effect, 10 complete control
# [10] = flood test, listed under Postemergence, Rate 250 g/ha, scale 0 to 10, 0 no effect, 10 complete control
structure (smiles),measurement,setting,value
CC(C)N(C(=O)n1oc(=O)n(-c2ccccc2Cl)c1=O)c1ccc(F)cc1 [Compound 8],Cocklebur plant response rating,cocklebur; [1],0
same,Cocklebur plant response rating,cocklebur; [2],2
same,"Plant response rating, Cocklebur",cocklebur; [3],0
same,"Plant response rating, Cocklebur",cocklebur; [4],0
same,Cocklebur plant response rating,cocklebur; [5],0
same,Cocklebur plant response rating,cocklebur; [6],0
same,Cocklebur plant response rating,cocklebur; [7],1
same,"Plant response rating, Cocklebur",cocklebur; [8],0
same,Velvetleaf plant response rating,velvetleaf; [1],0
same,Velvetleaf plant response rating,velvetleaf; [2],1
same,"Plant response rating, Velvetleaf",velvetleaf; [3],0
same,Velvetleaf plant response rating,velvetleaf; [5],0
same,Velvetleaf plant response rating,velvetleaf; [6],0
same,"Plant response rating, Velvetleaf",velvetleaf; [8],4
same,Barnyardgrass plant response rating,bamyardgrass; [2],0
same,Barnyardgrass plant response rating,bamyardgrass; [9],0
same,Barnyardgrass plant response rating,"bamyardgrass; Rate 500 g/ha, Postemergence section of Table B, 0 to 10 scale (0 no effect, 10 complete control)",0
same,Barnyardgrass plant response rating,bamyardgrass; [10],0
same,Rape plant response rating,rape; [1],0
same,Rape plant response rating,rape; [2],0
same,"Plant response rating, Rape",rape; [3],0
same,"Plant response rating, Rape",rape; [4],0
same,Rape plant response rating,rape; [5],0
same,Rape plant response rating,rape; [6],0
same,Rape plant response rating,rape; [7],0
same,"Plant response rating, Rape",rape; [8],0
same,Bedstraw plant response rating,bedstraw; [1],2
same,Bedstraw plant response rating,bedstraw; [2],3
same,"Plant response rating, Bedstraw",bedstraw; [3],0
same,"Plant response rating, Bedstraw",bedstraw; [4],0
same,Bedstraw plant response rating,bedstraw; [5],0
same,Bedstraw plant response rating,bedstraw; [6],2
same,Bedstraw plant response rating,bedstraw; [7],3
same,"Plant response rating, Bedstraw",bedstraw; [8],0
same,Wheat plant response rating,wheat; [1],0
same,Wheat plant response rating,wheat; [2],3
same,"Plant response rating, Wheat",wheat; [3],0
same,"Plant response rating, Wheat",wheat; [4],0
same,Wheat plant response rating,wheat; [5],0
same,Wheat plant response rating,wheat; [6],0
same,"Plant response rating, Wheat",wheat; [8],0
same,"Plant response rating, Nutsedge","purple nutsedge; Rate 125 g/ha, scale 0 to 10 (0 no effect, 10 complete control)",0
same,"Plant response rating, Nutsedge","purple nutsedge; Rate 250 g/ha, scale of 0 to 10 where 0 is no effect and 10 is complete control",0
same,Nutsedge plant response rating,"purple nutsedge; Rate 500 g/ha, scale 0 (no effect) to 10 (complete control)",0
same,"Plant response rating, Nutsedge","purple nutsedge; Rate 1000 g/ha, scale 0 to 10 (0 no effect, 10 complete control)",0
same,Blackgrass plant response rating,blackgrass; [1],2
same,Blackgrass plant response rating,blackgrass; [2],5
same,"Plant response rating, Blackgrass",blackgrass; [3],0
same,"Plant response rating, Blackgrass",blackgrass; [4],0
same,Blackgrass plant response rating,blackgrass; [5],0
same,Blackgrass plant response rating,blackgrass; [6],0
same,Blackgrass plant response rating,blackgrass; [7],2
same,"Plant response rating, Blackgrass",blackgrass; [8],4
same,Soybean plant response rating,soybean; [1],4
same,Soybean plant response rating,soybean; [2],5
same,"Plant response rating, Soybean",soybean; [3],0
same,"Plant response rating, Soybean",soybean; [4],0
same,Soybean plant response rating,soybean; [5],0
same,Soybean plant response rating,soybean; [6],3
same,"Plant response rating, Soybean",soybean; [8],0
same,B. signalgrass plant response rating,surinam grass; [1],0
same,B. signalgrass plant response rating,surinam grass; [2],3
same,"Plant response rating, B. signalgrass",surinam grass; [3],0
same,"Plant response rating, B. signalgrass",surinam grass; [4],4
same,B. signalgrass plant response rating,surinam grass; [5],5
same,B. signalgrass plant response rating,surinam grass; [6],0
same,B. signalgrass plant response rating,surinam grass; [7],0
same,"Plant response rating, B. signalgrass",surinam grass; [8],6
same,Crabgrass plant response rating,crabgrass; [1],0
same,Crabgrass plant response rating,crabgrass; [2],6
same,Crabgrass plant response rating,crabgrass; [5],6
same,Crabgrass plant response rating,crabgrass; [6],0
same,Crabgrass plant response rating,crabgrass; [7],0
same,"Plant response rating, Crabgrass",crabgrass; [8],9
same,Sugarbeets plant response rating,sugar beet; [1],0
same,Sugarbeets plant response rating,sugar beet; [2],2
same,"Plant response rating, Sugarbeets",sugar beet; [3],0
same,"Plant response rating, Sugarbeets",sugar beet; [4],0
same,Sugarbeets plant response rating,sugar beet; [5],0
same,Sugarbeets plant response rating,sugar beet; [6],0
same,"Plant response rating, Sugarbeets",sugar beet; [8],0
same,Wild oats plant response rating,wild oat; [1],0
same,Wild oats plant response rating,wild oat; [2],3
same,"Plant response rating, Wild oats",wild oat; [3],0
same,"Plant response rating, Wild oats",wild oat; [4],0
same,Wild oats plant response rating,wild oat; [5],2
same,Wild oats plant response rating,wild oat; [6],0
same,"Plant response rating, Wild oats",wild oat; [8],3
same,S. Flatsedge plant response rating,smallflower flatsedge; [2],0
same,S. Flatsedge plant response rating,smallflower flatsedge; [9],0
same,S. Flatsedge plant response rating,smallflower flatsedge; [10],0
same,Corn plant response rating,corn; [1],0
same,Corn plant response rating,corn; [2],3
same,"Plant response rating, Corn",corn; [3],0
same,"Plant response rating, Corn",corn; [4],0
same,Corn plant response rating,corn; [5],0
same,Corn plant response rating,corn; [6],0
same,Corn plant response rating,corn; [7],0
same,"Plant response rating, Corn",corn; [8],3
same,Redroot pigweed plant response rating,pigweed; [1],0
same,Redroot pigweed plant response rating,pigweed; [2],5
same,"Plant response rating, Redroot pigweed",pigweed; [3],4
same,"Plant response rating, Redroot pigweed",pigweed; [4],5
same,Redroot pigweed plant response rating,pigweed; [5],5
same,Redroot pigweed plant response rating,pigweed; [6],0
same,Redroot pigweed plant response rating,pigweed; [7],0
same,"Plant response rating, Redroot pigweed",pigweed; [8],7
